Assay results reported in article PMC9798004 (Frontiers in Psychiatry, 2022).
Several values for one entry are separate records, joined by “and”; a condition that tells them apart may be missing. Identical values can stand only once.

How the values were obtained:
Format in all cases: cell-based
[1] = target: CHRM3 (Homo sapiens, UniProt P20309)
[2] = target: T1, CHRM5 (Homo sapiens, UniProt P08912); experiment: PathHunter β-arrestin assay; conditions: screen, control agonist; CHO, 37C, 2HR
T1 construct: purchased Eurofins DiscoverX (PathHunter gpcrMAX)

[3] = target: T2, CHRM4 (Homo sapiens, UniProt P08173); experiment: PathHunter β-arrestin assay; conditions: screen, control agonist; CHO, 37C, 2HR
T2 construct: purchased Eurofins DiscoverX (PathHunter gpcrMAX)

[4] = target: T3, CHRM2 (Homo sapiens, UniProt P08172); experiment: PathHunter β-arrestin assay; conditions: control agonist
T3 sequence (P08172 1-466): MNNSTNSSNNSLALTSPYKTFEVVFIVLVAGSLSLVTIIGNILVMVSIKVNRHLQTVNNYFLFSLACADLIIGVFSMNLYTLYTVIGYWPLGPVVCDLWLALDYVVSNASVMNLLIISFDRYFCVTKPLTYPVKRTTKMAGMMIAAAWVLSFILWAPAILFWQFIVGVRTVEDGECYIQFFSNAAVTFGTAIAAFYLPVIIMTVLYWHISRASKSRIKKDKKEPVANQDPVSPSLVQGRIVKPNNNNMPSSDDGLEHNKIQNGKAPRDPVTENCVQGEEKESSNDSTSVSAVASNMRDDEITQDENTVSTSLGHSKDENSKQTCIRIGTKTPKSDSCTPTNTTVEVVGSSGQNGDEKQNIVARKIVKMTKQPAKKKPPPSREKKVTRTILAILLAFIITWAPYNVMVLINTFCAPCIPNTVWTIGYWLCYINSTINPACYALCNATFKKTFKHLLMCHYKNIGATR

[5] = target: T4, CRHR2 (Homo sapiens, UniProt Q13324); experiment: PathHunter β-arrestin assay; conditions: screen, control agonist; CHO, RT, 2HR
T4 construct: purchased Eurofins DiscoverX (PathHunter gpcrMAX)

[6] = target: T5, CXCR3 (Homo sapiens, UniProt P49682); experiment: PathHunter β-arrestin assay; conditions: screen, control agonist; CHO, 37C, 2HR
T5 construct: purchased Eurofins DiscoverX (PathHunter gpcrMAX)
T5 sequence (P49682 1-368): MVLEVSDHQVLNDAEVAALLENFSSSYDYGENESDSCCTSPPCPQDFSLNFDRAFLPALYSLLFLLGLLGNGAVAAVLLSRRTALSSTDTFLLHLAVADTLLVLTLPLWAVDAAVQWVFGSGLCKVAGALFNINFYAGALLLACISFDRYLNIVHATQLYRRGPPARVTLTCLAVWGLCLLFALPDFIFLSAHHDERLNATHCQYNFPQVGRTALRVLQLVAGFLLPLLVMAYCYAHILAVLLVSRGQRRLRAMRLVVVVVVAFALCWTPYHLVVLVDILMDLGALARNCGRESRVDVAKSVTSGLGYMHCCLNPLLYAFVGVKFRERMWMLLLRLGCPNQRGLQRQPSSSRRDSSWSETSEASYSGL

[7] = target: T6, CRTH2 (Homo sapiens, UniProt Q9Y5Y4); experiment: PathHunter β-arrestin assay; conditions: screen, control agonist; U2OS, RT, 2HR
T6 construct: purchased Eurofins DiscoverX (PathHunter gpcrMAX)

[8] = target: T7, CNR1 (CB1) (Homo sapiens, UniProt P21554); experiment: PathHunter β-arrestin assay; conditions: screen, control agonist; CHO, 37C, 2HR
T7 construct: host or cells: CHO

[9] = target: T8, CNR2 (Homo sapiens, UniProt P34972); experiment: PathHunter β-arrestin assay; conditions: screen, control agonist; CHO, RT, 2HR
T8 construct: purchased Eurofins DiscoverX (PathHunter gpcrMAX)

[10] = system: AtT20 cells wildtype (WT); experiment: LDH release cytotoxicity assay; conditions: 30 μM
Description: AtT20 cells expressing either human CB1 (hCB1) or CB2 (hCB2) receptors or wildtype (WT) were grown to confluence in T75 cm^2 flasks in Dulbecco's modified eagle medium containing 10% fetal bovine serum, 100 U penicillin/streptomycin, and 80 μg/mL hygromicyin (Sigma-Aldrich/Merck; Castle Hill, NSW, Australia). Cells were plated in 96-well-microplates at 30,000 cells per well and allowed to adhere overnight in 5% CO2. The following morning, cells were treated with either vehicle (0.1% DMSO; negative control), 30 μM Δ^9-THC, or 30 μM AMB-FUBINACA. At 1 or 6 h, the amount of lactate dehydrogenase in the cell media was tested, and compared with positive control (lysed cells) as per manufacturer's instructions (Dojindo Molecular Technologies, Inc.; Rockville, MD, USA), with readings performed on a Clariostar Plus plate reader (BMG Labtech, Mornington, VIC, Australia). Experiments were performed in triplicate. In order to measure any accumulating LDH, media was not changed after initial incubation. Data is represented as means ± S.E.M. A two-way ANOVA with was performed on the data at each time point, with Tukey's multiple comparison test (α = 0.05). A p < 0.05 was considered statistically significant.

[11] = target: T9, CCR3 (Homo sapiens, UniProt P51677); experiment: PathHunter β-arrestin assay; conditions: screen, control agonist; CHO, 37C, 2HR
T9 construct: purchased Eurofins DiscoverX (PathHunter gpcrMAX)
T9 sequence (P51677 1-355): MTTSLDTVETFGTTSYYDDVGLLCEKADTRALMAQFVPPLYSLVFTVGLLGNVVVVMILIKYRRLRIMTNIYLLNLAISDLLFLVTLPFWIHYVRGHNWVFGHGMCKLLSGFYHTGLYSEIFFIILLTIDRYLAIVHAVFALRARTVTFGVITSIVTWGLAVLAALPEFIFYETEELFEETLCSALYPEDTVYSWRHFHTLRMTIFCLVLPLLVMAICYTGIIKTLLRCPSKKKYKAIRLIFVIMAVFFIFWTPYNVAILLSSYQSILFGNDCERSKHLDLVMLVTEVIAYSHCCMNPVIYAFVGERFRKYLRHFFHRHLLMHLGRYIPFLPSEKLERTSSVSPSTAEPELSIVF

[12] = target: T10, CCR7 (Homo sapiens, UniProt P32248); experiment: PathHunter β-arrestin assay; conditions: screen, control agonist; CHO, 37C, 2HR
T10 construct: purchased Eurofins DiscoverX (PathHunter gpcrMAX)
T10 sequence (P32248 25-378): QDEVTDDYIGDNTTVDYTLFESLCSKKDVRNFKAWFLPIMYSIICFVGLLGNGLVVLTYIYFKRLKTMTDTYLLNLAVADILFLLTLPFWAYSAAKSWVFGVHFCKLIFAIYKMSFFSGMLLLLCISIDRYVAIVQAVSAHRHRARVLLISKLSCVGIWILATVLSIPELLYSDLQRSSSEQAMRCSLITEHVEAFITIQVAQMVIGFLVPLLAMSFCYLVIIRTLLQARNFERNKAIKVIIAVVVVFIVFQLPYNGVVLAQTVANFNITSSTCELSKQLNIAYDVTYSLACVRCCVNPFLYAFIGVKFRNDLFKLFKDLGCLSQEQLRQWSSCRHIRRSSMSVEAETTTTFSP

[13] = target: T11, CXCR1 (Homo sapiens, UniProt P25024); experiment: PathHunter β-arrestin assay; conditions: screen, control agonist; U20S, 37C, 2HR
T11 construct: purchased Eurofins DiscoverX (PathHunter gpcrMAX)
T11 sequence (P25024 1-350): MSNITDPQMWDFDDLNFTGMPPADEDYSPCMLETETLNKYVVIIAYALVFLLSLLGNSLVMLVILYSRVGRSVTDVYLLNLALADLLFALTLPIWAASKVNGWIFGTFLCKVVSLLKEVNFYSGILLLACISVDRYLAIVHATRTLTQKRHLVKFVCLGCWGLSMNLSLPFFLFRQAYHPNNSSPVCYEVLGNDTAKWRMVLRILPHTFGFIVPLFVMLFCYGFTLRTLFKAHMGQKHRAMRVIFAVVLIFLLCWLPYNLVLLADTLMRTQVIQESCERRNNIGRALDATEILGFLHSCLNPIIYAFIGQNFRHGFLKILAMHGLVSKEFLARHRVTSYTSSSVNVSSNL

[14] = target: T12, CXCR2 (Homo sapiens, UniProt P25025); experiment: PathHunter β-arrestin assay; conditions: screen, control agonist; CHO, 37C, 2HR
T12 construct: purchased Eurofins DiscoverX (PathHunter gpcrMAX)
T12 sequence (P25025 1-360): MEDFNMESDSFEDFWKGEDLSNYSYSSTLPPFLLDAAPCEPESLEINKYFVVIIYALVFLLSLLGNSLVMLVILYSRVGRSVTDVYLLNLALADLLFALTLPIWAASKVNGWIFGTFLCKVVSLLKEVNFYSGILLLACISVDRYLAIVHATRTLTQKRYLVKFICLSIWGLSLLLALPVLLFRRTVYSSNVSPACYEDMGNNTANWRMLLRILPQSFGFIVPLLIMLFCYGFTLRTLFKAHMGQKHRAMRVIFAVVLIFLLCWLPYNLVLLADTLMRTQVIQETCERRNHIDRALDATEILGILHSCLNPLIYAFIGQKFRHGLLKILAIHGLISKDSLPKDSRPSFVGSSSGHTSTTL

[15] = target: T13, CXCR5 (Homo sapiens, UniProt P32302); experiment: PathHunter β-arrestin assay; conditions: screen, control agonist; CHO, 37C, 2HR
T13 construct: purchased Eurofins DiscoverX (PathHunter gpcrMAX)
T13 sequence (P32302 1-372): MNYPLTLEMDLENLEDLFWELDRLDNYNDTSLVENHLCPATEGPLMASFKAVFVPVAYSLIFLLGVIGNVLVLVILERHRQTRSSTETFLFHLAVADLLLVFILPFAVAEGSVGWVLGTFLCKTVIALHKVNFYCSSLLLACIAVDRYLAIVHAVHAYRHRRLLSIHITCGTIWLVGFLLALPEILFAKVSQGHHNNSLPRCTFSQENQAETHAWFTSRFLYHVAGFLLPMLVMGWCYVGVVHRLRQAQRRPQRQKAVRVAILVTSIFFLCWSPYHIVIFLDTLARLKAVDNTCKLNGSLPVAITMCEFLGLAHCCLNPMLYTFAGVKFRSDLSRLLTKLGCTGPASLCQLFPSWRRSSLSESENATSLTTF

[16] = target: T14, CCR1 (Homo sapiens, UniProt P32246); experiment: PathHunter β-arrestin assay; conditions: screen, control agonist; CHO, 37C, 2HR
T14 construct: purchased Eurofins DiscoverX (PathHunter gpcrMAX)
T14 sequence (P32246 1-355): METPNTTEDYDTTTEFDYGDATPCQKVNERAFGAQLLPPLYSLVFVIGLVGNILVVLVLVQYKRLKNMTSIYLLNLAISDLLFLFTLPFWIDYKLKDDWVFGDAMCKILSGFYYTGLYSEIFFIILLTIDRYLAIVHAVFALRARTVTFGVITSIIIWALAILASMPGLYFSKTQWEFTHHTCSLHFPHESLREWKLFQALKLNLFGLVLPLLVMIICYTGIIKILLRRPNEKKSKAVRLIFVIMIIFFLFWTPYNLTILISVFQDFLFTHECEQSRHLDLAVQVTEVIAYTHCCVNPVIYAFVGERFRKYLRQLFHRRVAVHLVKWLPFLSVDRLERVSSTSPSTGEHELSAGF

[17] = target: T15, CCR5 (Homo sapiens, UniProt P51681); experiment: PathHunter β-arrestin assay; conditions: screen, control agonist; CHO, 37C, 2HR
T15 construct: purchased Eurofins DiscoverX (PathHunter gpcrMAX)

[18] = target: T16, CXCR4 (Homo sapiens, UniProt P61073); experiment: PathHunter β-arrestin assay; conditions: screen, control agonist; C2C12, 37C, 2HR
T16 construct: purchased Eurofins DiscoverX (PathHunter gpcrMAX)

[19] = target: T17, CCR2 (Homo sapiens, UniProt P41597); experiment: PathHunter β-arrestin assay; conditions: screen, control agonist; CHO, 37C, 2HR
T17 construct: purchased Eurofins DiscoverX (PathHunter gpcrMAX)

[20] = target: T18, CX3CR1 (Homo sapiens, UniProt P49238); experiment: PathHunter β-arrestin assay; conditions: screen, control agonist; CHO, 37C, 2HR
T18 construct: purchased Eurofins DiscoverX (PathHunter gpcrMAX)
T18 sequence (P49238 1-355): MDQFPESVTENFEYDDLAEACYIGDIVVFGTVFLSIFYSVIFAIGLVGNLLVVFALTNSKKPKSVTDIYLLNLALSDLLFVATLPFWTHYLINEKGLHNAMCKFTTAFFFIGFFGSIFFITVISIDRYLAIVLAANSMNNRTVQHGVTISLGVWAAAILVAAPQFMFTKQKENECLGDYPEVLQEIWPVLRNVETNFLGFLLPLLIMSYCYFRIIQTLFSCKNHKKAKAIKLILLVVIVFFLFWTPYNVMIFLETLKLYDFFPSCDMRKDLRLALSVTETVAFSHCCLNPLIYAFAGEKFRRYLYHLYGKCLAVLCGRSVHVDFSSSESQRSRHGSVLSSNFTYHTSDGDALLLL

CHRM3, sequence (P20309 whole entry): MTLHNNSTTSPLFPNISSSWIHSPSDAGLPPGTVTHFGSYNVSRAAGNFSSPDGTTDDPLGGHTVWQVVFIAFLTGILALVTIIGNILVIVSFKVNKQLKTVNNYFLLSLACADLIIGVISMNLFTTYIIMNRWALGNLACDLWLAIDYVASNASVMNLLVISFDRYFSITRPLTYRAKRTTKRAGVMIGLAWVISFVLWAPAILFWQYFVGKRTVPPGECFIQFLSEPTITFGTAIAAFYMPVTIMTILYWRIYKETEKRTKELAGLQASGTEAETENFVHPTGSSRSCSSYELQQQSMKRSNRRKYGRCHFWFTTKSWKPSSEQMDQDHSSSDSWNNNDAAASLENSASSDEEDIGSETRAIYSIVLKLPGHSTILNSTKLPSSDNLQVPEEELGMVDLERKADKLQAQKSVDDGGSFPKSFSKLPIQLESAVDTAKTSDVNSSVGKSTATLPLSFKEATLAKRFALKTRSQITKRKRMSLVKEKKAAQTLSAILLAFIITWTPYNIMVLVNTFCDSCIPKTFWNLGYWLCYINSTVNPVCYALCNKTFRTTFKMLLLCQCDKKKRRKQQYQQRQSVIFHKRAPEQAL
T15 sequence (P51681 whole entry): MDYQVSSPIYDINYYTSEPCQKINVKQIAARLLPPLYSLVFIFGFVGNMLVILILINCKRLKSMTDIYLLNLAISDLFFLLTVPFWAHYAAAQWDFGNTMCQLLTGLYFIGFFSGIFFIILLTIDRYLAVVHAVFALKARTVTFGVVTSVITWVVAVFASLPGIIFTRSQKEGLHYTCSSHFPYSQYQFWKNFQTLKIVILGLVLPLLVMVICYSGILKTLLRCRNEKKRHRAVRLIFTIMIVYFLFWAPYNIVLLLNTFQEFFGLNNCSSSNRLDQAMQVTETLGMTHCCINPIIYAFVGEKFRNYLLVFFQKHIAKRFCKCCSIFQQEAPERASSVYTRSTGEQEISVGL
T17 sequence (P41597 whole entry): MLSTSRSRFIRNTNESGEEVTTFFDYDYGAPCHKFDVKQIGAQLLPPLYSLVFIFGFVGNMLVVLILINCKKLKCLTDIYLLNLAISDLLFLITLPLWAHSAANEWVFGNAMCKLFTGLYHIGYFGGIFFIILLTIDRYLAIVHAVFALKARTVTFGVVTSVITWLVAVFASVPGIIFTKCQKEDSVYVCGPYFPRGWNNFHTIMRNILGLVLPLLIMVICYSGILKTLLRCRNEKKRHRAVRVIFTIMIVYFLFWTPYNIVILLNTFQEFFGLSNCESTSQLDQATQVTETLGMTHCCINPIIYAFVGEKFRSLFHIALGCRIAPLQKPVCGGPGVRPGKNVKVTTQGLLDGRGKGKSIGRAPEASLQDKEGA
T4 sequence (Q13324 whole entry): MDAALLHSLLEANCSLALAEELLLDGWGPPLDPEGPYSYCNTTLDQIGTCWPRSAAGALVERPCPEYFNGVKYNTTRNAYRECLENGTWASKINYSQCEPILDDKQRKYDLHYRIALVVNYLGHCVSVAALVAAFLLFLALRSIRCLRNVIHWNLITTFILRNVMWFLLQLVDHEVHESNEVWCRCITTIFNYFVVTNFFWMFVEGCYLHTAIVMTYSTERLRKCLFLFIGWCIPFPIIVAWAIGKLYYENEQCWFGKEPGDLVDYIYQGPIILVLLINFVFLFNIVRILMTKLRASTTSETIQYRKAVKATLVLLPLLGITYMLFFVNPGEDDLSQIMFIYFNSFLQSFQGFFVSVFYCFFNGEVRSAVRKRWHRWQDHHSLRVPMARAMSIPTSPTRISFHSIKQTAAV
T2 sequence (P08173 whole entry): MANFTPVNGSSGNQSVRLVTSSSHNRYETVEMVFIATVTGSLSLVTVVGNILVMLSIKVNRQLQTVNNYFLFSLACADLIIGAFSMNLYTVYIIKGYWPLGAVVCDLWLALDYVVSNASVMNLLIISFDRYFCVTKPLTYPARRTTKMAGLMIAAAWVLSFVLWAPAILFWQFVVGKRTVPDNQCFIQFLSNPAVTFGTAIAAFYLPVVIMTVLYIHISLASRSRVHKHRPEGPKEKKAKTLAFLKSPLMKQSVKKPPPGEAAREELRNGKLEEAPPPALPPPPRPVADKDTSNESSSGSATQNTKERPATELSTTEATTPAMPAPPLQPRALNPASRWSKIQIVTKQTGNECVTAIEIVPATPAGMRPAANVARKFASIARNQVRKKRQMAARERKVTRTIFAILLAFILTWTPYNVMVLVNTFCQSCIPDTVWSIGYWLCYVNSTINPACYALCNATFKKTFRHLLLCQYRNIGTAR
T1 sequence (P08912 whole entry): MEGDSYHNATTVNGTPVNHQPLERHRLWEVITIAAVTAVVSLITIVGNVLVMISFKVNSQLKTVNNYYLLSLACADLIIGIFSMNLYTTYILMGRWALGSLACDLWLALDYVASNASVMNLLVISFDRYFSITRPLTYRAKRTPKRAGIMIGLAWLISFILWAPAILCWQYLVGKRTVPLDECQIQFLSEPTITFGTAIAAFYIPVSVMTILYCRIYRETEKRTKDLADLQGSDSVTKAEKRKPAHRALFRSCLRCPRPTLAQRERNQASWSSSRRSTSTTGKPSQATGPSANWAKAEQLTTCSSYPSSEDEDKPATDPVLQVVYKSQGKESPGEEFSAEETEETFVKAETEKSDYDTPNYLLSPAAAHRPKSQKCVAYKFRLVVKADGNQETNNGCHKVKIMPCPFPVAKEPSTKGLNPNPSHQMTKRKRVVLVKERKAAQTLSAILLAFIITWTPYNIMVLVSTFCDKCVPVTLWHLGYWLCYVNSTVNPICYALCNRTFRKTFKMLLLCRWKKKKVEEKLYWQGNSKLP
T7 sequence (P21554 whole entry): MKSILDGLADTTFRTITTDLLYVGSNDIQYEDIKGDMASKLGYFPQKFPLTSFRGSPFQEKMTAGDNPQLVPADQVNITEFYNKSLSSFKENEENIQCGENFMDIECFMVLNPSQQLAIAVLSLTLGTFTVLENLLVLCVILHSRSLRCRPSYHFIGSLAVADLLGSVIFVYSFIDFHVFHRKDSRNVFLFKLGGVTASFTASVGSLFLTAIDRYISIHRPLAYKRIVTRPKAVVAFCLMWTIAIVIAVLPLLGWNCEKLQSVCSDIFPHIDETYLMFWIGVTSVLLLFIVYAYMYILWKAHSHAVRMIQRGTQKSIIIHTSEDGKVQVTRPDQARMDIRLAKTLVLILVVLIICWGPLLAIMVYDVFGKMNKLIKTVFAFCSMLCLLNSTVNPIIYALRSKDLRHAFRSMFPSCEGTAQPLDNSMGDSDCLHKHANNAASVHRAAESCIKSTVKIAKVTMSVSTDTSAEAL
T8 sequence (P34972 whole entry): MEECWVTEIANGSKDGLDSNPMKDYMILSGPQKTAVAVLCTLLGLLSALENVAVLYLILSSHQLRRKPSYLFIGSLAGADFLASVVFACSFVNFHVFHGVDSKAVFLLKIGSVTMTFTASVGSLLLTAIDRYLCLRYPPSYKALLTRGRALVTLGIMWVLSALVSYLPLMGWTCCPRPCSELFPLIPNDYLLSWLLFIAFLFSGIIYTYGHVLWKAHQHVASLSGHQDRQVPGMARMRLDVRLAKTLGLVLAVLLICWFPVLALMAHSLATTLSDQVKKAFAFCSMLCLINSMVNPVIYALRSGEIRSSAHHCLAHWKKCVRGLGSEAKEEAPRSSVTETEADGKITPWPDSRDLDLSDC
T16 sequence (P61073 whole entry): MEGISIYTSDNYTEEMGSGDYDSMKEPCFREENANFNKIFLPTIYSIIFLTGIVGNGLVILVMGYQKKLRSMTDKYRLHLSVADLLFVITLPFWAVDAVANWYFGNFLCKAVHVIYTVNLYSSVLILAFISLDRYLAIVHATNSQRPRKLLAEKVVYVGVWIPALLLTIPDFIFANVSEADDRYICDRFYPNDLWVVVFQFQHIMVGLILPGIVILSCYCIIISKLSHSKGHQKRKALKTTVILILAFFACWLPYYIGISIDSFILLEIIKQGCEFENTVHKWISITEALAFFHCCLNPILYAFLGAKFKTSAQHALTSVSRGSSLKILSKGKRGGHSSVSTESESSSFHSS
T6 sequence (Q9Y5Y4 whole entry): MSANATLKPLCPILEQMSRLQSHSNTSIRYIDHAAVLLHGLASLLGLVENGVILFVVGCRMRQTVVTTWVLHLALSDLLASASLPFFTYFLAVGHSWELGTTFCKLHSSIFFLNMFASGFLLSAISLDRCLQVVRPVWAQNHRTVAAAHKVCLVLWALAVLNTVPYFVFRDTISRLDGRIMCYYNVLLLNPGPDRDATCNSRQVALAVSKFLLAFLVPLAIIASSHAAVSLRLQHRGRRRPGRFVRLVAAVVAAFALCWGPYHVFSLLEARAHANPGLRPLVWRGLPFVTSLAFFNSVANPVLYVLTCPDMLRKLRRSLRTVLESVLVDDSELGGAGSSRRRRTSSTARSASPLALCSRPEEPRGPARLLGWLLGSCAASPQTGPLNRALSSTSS

CC(=O)OCC[N+](C)(C)C [Acetylcholine]
EC80 [1]: 3.54 µM and 3.5393 µM | EC80 [2]: 1.03 µM | EC80 [3]: 3.91 µM | EC80 ([4]; follow-up concentration-response assays): 24.817 µM | EC80 ([4]; screen, CHO, 37C, 2HR): 24.8 µM

Sauvagine
EC80 [5]: 0.0247 µM

CXCL11: control agonist
EC80 [6]: 0.0179 µM

CCCCC[C@H](O)/C=C/[C@H]1C(=O)C[C@H](O)[C@@H]1C/C=C\CCCC(=O)O [PGD2]
EC80 [7]: 0.0238 µM

CCCCCCC(C)(C)c1ccc([C@@H]2C[C@H](O)CC[C@H]2CCCO)c(O)c1 [CP55940]
EC80 [8]: 0.0203 µM | EC80 [9]: 4.12 nM | LDH in cell media, normalized to total LDH ([10]; 1 h): 28.90 ± 7.81% | LDH increase compared with vehicle ([10]; 6 h): no effect was observed

CCL13: control agonist
EC80 [11]: 0.0464 µM

CCL19: control agonist
EC80 [12]: 0.0189 µM

CXCL8: control agonist
EC80 [13]: 4.95 nM | EC80 [14]: 953 pM

CXCL13: control agonist
EC80 [15]: 0.0613 µM

CCL3: control agonist
EC80 [16]: 2.53 nM | EC80 [17]: 0.0101 µM

CXCL12: control agonist
EC80 [18]: 5.15 nM

CCL2: control agonist
EC80 [19]: 6.98 nM

B1: Fractalkine: control agonist (protein, UniProt P78423 25-397, looked up)
Fractalkine: QHHGVTKCNITCSKMTSKIPVALLIHYQQNQASCGKRAIILETRQHRLFCADPKEQWVKDAMQHLDRQAAALTRNGGTFEKQIGEVKPRTTPAAGGMDESVVLEPEATGESSSLEPTPSSQEAQRALGTSPELPTGVTGSSGTRLPPTPKAQDGGPVGTELFRVPPVSTAATWQSSAPHQPGPSLWAEAKTSEAPSTQDPSTQASTASSPAPEENAPSEGQRVWGQGQSPRPENSLEREEMGPVPAHTDAFQDWGPGSMAHVSVVPVSSEGTPSREPVASGSWTPKAEEPIHATMDPQRLGVLITPVPDAQAATRRQAVGLLAFLGLLFCLGVAMFTYQSLQGCPRKMAGEMAEGLRYIPRSCGSNSYVLVPV
EC80 [20]: 1.92 nM
